Assays:
[1] = Three-color excitation-multiplexed SWIR imaging of awake mouse; format: in vivo; details: 80 minutes after i.p. 10 micelles and i.v. 3 micelles and ICG; top-view
Description: To obtain real-time images in three colors, heptamethine 10 was encapsulated in PEG-coated micelles to impart water solubility. In vivo, we introduced 10 micelles by intraperitoneal injection, and 3 micelles followed by ICG by intravenous injection. […] After establishing both the technology and the molecular tools for multiplexed real-time observation of function in mice, the next goal was to enhance existing SWIR imaging applications.
Physiological properties such as heart-rate, respiratory rate, thermoregulation, metabolism, and the function of the central nervous system, are highly impacted by anesthesia. […] Due to frame rates which are faster than macroscopic movements in animals, the heart rate and respiratory rate in awake animals can be quantified. […] The method allows physiology to be monitored with minimal perturbation of the animal's usual environment. […] The real-time collection can be visualized by observing close time-points in which a continuous movement is monitored without visual aberrations (FIG. 16A). In addition to assessing natural physiology, these tools foreshadow more complex experiments in which the location of multiple probes could be monitored over long periods of time, non-invasively and without the need for anesthesia.

[2] = Two-color SWIR lymphatic imaging of narcotized mouse; format: in vivo; details: intradermally into footpads and base of tail, after 30 min
Description: The FIGS. 9A, 9B and 9C show merged frames representing the lymphatic system of a narcotized mouse in two-color real-time acquisition. With detector exposure time of 20 ms, a frame rate of 21 fps is achieved with the developed system. […] Then, Julo 7 micelles have been injected intravenously. The lymphatic functional imaging is later enhanced by the assignment of two distinct colors.
Light Source (785 nm laser & 1064 nm laser sequentially triggered, pulse length=21 ms)→Collimator→Mirror→1100 nm Short-pass Filter→Engineered Diffuser→Sample. The arrows represent the light path. Accordingly, the light path has been set up as follows: from Light Source (785 nm laser & 1064 nm laser sequentially triggered, pulse length=21 ms) to Collimator to Mirror to 1100 nm Short-pass Filter to Engineered Diffuser to Sample.
Sample→3×f=500 mm C-Coated lenses→Silver Mirror→1000 nm Long-pass Filter→2×f=200 mm C-coated lenses→InGaAs Detector. The arrows represent the light path. Accordingly, the light path has been set up as follows: from Sample to 3×f=500 mm C-Coated lenses to Silver Mirror to 1000 nm Long-pass Filter to 2×f=200 mm C-coated lenses to InGaAs Detector.
Sample: ICG (aqueous, 13 nmol intradermally [footpads and base of tail]) and Julo7 (micelles, 70 nmol intravenously).

[3] = stated as known property; cited from earlier work
[4] = reference value used for relative measurements; cited from earlier work
[5] = Absorptive and emissive properties of flavylium heptamethine dyes in dichloromethane; format: physicochemical
Description: As the highest energy absorber of the series, the 7-methoxy substituted dye 10 is ˜44 nm blue shifted from Flav7, with absorption at 984 nm, close to the 980 nm laser line, and emission at 1008 nm. […] The diphenylamino substituted 7 is ˜23 nm red-shifted compared to Flav7, while julolidine derivative 3 is red-shifted by ˜35 nm with absorption at 1061 nm and emission at 1088 nm. Due to its absorption maximum and high brightness (εmax), 3 was a promising candidate for SWIR imaging with 1064 nm excitation and was named Julo7. […] This increased understanding of the relationship between structural and absorption/emission wavelengths sets-up opportunities for predicting photophysical properties of the scaffold.
The absorption coefficients (ε) of the series vary from ˜110,000 to ˜240,000 M^−1cm^−1. […] The fluorescence quantum yields (φF) (relative measurements to IR-26=0.05%) remain rather constant, in the 0.4 to 0.6% range, despite red- or blue-shifted behavior, providing a platform for intensity-matched probes. […]
For excitation multiplexing, we are most interested in properties of the series of polymethine fluorophores when exited at 980 and 1064 nm. Thus, we calculated brightness (εA) values for each dye using the absorbance coefficient at the respective wavelengths. […]

## CC1(C)C(/C=C/C=C/C=C/C=C2\N(CCCCS(=O)(=O)[O-])c3ccc4ccccc4c3C2(C)C)=[N+](CCCCS(=O)(=O)[O-])c2ccc3ccccc3c21.[Na+] [ICG, indocyanine green]
[1]
  location of probe in awake mouse: exclusively in the liver
[2]
  conduction through the lymphatic vessels: efficiently conducted through the lymphatic vessels
[3]
  clearance route: clears efficiently and exclusively from the liver

## ClC1=C(/C=C/c2cc(-c3ccccc3)[s+]c3ccccc23)CCC/C1=C\C=C1/C=C(c2ccccc2)Sc2ccccc21.[O-][Cl+3]([O-])([O-])[O-] [IR-26]
[4]
  fluorescence quantum yield of reference standard: 0.05%

## CN(C)c1ccc2c(c1)OC(c1ccccc1)=C/C2=C\C=C1/CCCC(/C=C/c2cc(-c3ccccc3)[o+]c3cc(N(C)C)ccc23)=C1Cl [dye 1]
[5]
  λmax,abs (absorption): 1027 nm
  λmax,em (emission): 1053 nm

Source: patent US12618846B2, “Method and device for imaging fluorescent proteins in near- and short-wave infrared” (HELMHOLTZ ZENTRUM MÜNCHEN—DEUTSCHES FORSCHUNGSZENTRUM FÜR …, priority 2019, dated 2026)
